Laboratory results published in US7566727B2, “2-(1-aza-bicyclo[2.2.2]oct-3-yl)-2,3-dihydro-isoindole-1-one/5,6-dihydro-furo[2,3-c] pyrrol-4-one derivative ligands for alpha 7 nicotinic acetylcholine receptor” (priority 2004, dated 2009).

Target: α7 nAChR subtype (Rattus norvegicus, UniProt Q05941)
Test: Test A: 125I-α-Bungarotoxin binding to rat hippocampal membranes (affinity at α7 nAChR subtype)
Conditions: [125I]α-BTX displacement, rat hippocampal membranes
Protocol: Test A—Assay for Affinity at α7 nAChR subtype
125I-α-Bungarotoxin (BTX) binding to rat hippocampal membranes. Rat hippocampi were homogenized in 20 volumes of cold homogenization buffer (HB: concentrations of constituents (mM): tris(hydroxymethyl)aminomethane 50; MgCl2 1; NaCl 120; KCl 5: pH 7.4). The homogenate was centrifuged for 5 minutes at 1000 g, the supernatant was saved and the pellet re-extracted. The pooled supernatants were centrifuged for 20 minutes at 12,000 g, washed, and re-suspended in HB. Membranes (30-80 μg) were incubated with 5 nM [^125I] α-BTX, 1 mg/mL BSA (bovine serum albumin), test drug, and either 2 mM CaCl2 or 0.5 mM EGTA [ethylene glycol-bis(β-aminoethylether)] for 2 hours at 21° C., and then filtered and washed 4 times over Whatman glass fibre filters (thickness C) using a Brandel cell harvester.
Binding data analysis for Tests A and B
IC50 values and pseudo Hill coefficients (nH) were calculated using the non-linear curve fitting program ALLFIT (DeLean A, Munson P J and Rodbard D (1977) Am. J. Physiol., 235:E97-E102). […] Ki values were determined using 6 or more drug concentrations.

Chain of α7 nAChR subtype (Q05941 23-502): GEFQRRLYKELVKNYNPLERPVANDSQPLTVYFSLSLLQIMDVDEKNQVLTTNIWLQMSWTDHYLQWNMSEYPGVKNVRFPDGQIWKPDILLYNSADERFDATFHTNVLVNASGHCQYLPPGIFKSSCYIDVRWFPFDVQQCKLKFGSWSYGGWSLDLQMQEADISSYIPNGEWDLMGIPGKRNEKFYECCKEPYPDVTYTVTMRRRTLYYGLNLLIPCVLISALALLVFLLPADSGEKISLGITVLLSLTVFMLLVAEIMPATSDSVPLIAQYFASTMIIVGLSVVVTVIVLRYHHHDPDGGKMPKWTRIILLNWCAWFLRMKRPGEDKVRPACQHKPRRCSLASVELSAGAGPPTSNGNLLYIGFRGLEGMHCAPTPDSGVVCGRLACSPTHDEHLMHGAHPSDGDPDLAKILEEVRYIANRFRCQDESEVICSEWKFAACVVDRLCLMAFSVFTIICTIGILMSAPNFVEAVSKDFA

Compound | Ki [nM]
COc1ccc(-c2ccc3c(c2)C(=O)N([C@H]2CN4CCC2CC4)C3)cc1 [Example 28, 2-(R)-1-Aza-bicyclo[2.2.2]oct-3-yl-6-(4-methoxy-phenyl)-2,3-dihydro-isoindol-1-one] | 77
O=C1c2cc(Cl)ccc2CN1[C@H]1CN2CCC1CC2 [Example 29, 2-(R)-1-Aza-bicyclo[2.2.2]oct-3-yl-6-chloro-2,3-dihydro-isoindol-1-one] | 289
COc1cccc(-c2ccc3c(c2)C(=O)N([C@H]2CN4CCC2CC4)C3)c1 [Example 30, 2-(R)-1-Aza-bicyclo[2.2.2]oct-3-yl-6-(3-methoxy-phenyl)-2,3-dihydro-isoindol-1-one] | 21.8
O=C1c2cc(-c3cccc(Cl)c3)ccc2CN1[C@H]1CN2CCC1CC2 [Example 31, 2-(R)-1-Aza-bicyclo[2.2.2]oct-3-yl-6-(3-chloro-phenyl)-2,3-dihydro-isoindol-1-one] | 45.4
O=C1c2cc(-c3ccc(Cl)cc3)ccc2CN1[C@H]1CN2CCC1CC2 [Example 32, 2-(R)-1-Aza-bicyclo[2.2.2]oct-3-yl-6-(4-chloro-phenyl)-2,3-dihydro-isoindol-1-one] | 90
O=C1c2cc(-c3cccc4cccnc34)ccc2CN1[C@H]1CN2CCC1CC2 [Example 33, 2-(R)-1-Aza-bicyclo[2.2.2]oct-3-yl-6-quinolin-8-yl-2,3-dihydro-isoindol-1-one] | 90
O=C1c2cc(-c3ccc4c(c3)OCO4)ccc2CN1[C@H]1CN2CCC1CC2 [Example 34, 2-(R)-1-Aza-bicyclo[2.2.2]oct-3-yl-6-benzo[1,3]dioxol-5-yl-2,3-dihydro-isoindol-1-one] | 37
O=C1c2cc(-c3ccccc3Cl)ccc2CN1[C@H]1CN2CCC1CC2 [Example 35, 2-(R)-1-Aza-bicyclo[2.2.2]oct-3-yl-6-(2-chloro-phenyl)-2,3-dihydro-isoindol-1-one] | 6.3
COc1ccccc1-c1ccc2c(c1)C(=O)N([C@H]1CN3CCC1CC3)C2 [Example 36, 2-(R)-1-Aza-bicyclo[2.2.2]oct-3-yl-6-(2-methoxy-phenyl)-2,3-dihydro-isoindol-1-one] | 24
CC(=O)Nc1cccc(-c2ccc3c(c2)C(=O)N([C@H]2CN4CCC2CC4)C3)c1 [Example 37, N-[3-((R)-2-1-Aza-bicyclo[2.2.2]oct-3-yl-3-oxo-2,3-dihydro-1H-isoindol-5-yl)-phenyl]-acetamide] | 7
CN1CCN(c2ccc3c(c2)C(=O)N([C@H]2CN4CCC2CC4)C3)CC1 [Example 38, 2-(R)-1-Aza-bicyclo[2.2.2]oct-3-yl-6-(4-methyl-piperazin-1-yl)-2,3-dihydro-isoindol-1-one] | 424
O=C1c2cc(N3CCOCC3)ccc2CN1[C@H]1CN2CCC1CC2 [Example 39, 2-(R)-1-Aza-bicyclo[2.2.2]oct-3-yl-6-morpholin-4-yl-2,3-dihydro-isoindol-1-one] | 421
CN(C)C(=O)c1ccc(-c2ccc3c(c2)C(=O)N([C@H]2CN4CCC2CC4)C3)cc1 [Example 40, 4-((R)-2-1-Aza-bicyclo[2.2.2]oct-3-yl-3-oxo-2,3-dihydro-1H-isoindol-5-yl)-N,N-dimethyl-benzamide] | 353
O=C1c2cc(-c3ccc4ncccc4c3)ccc2CN1[C@H]1CN2CCC1CC2 [Example 41, 2-(R)-1-Aza-bicyclo[2.2.2]oct-3-yl-6-quinolin-6-yl-2,3-dihydro-isoindol-1-one] | 329
O=C1c2cc(-c3cccc4ncccc34)ccc2CN1[C@H]1CN2CCC1CC2 [Example 42, 2-(R)-1-Aza-bicyclo[2.2.2]oct-3-yl-6-quinolin-5-yl-2,3-dihydro-isoindol-1-one] | 89.6
CS(=O)(=O)c1cccc(-c2ccc3c(c2)C(=O)N([C@H]2CN4CCC2CC4)C3)c1 [Example 43, 2-(R)-1-Aza-bicyclo[2.2.2]oct-3-yl-6-(3-methanesulfonyl-phenyl)-2,3-dihydro-isoindol-1-one] | 94
CS(=O)(=O)c1ccc(-c2ccc3c(c2)C(=O)N([C@H]2CN4CCC2CC4)C3)cc1 [Example 44, 2-(R)-1-Aza-bicyclo[2.2.2]oct-3-yl-6-(4-methanesulfonyl-phenyl)-2,3-dihydro-isoindol-1-one] | 321
O=C1c2cc(-c3cnc4ccccc4c3)ccc2CN1[C@H]1CN2CCC1CC2 [Example 45, 2-(R)-1-Aza-bicyclo[2.2.2]oct-3-yl-6-quinolin-3-yl-2,3-dihydro-isoindol-1-one] | 66.8

Compound | Ki [nM]
COc1ccc(-c2ccc3c(c2)C(=O)N([C@H]2CN4CCC2CC4)C3)cn1 [Example 46, 2-(R)-1-Aza-bicyclo[2.2.2]oct-3-yl-6-(6-methoxy-pyridin-3-yl)-2,3-dihydro-isoindol-1-one] | 290
O=C1c2cc(-c3cccc4cnccc34)ccc2CN1[C@H]1CN2CCC1CC2 [Example 47, 2-(R)-1-Aza-bicyclo[2.2.2]oct-3-yl-6-isoquinolin-5-yl-2,3-dihydro-isoindol-1-one] | 32
O=C1c2cc(-c3cncc4ccccc34)ccc2CN1[C@H]1CN2CCC1CC2 [Example 48, 2-(R)-1-Aza-bicyclo[2.2.2]oct-3-yl-6-isoquinolin-4-yl-2,3-dihydro-isoindol-1-one] | 112
CC(=O)Nc1ccc(-c2ccc3c(c2)C(=O)N([C@H]2CN4CCC2CC4)C3)cc1 [Example 49, N-[4-((R)-2-1-Aza-bicyclo[2.2.2]oct-3-yl-3-oxo-2,3-dihydro-1H-isoindol-5-yl)-phenyl]-acetamide] | 3.2
Cn1cc(-c2ccc3c(c2)C(=O)N([C@H]2CN4CCC2CC4)C3)cn1 [Example 50, 2-(R)-1-Aza-bicyclo[2.2.2]oct-3-yl-6-(1-methyl-1H-pyrazol-4-yl)-2,3-dihydro-isoindol-1-one] | 61
O=C1c2cc(-c3cnn(Cc4ccccc4)c3)ccc2CN1[C@H]1CN2CCC1CC2 [Example 51, 2-(R)-1-Aza-bicyclo[2.2.2]oct-3-yl-6-(1-benzyl-1H-pyrazol-4-yl)-2,3-dihydro-isoindol-1-one] | 146
CN(C)C(=O)c1cccc(-c2ccc3c(c2)C(=O)N([C@H]2CN4CCC2CC4)C3)c1 [Example 52, 3-((R)-2-1-Aza-bicyclo[2.2.2]oct-3-yl-3-oxo-2,3-dihydro-1H-isoindol-5-yl)-N,N-dimethyl-benzamide] | 31
CCNC(=O)c1ccc(-c2ccc3c(c2)C(=O)N([C@H]2CN4CCC2CC4)C3)cc1 [Example 53, 4-((R)-2-1-Aza-bicyclo[2.2.2]oct-3-yl-3-oxo-2,3-dihydro-1H-isoindol-5-yl)-N-ethyl-benzamide] | 348
COc1cc(OC)cc(-c2ccc3c(c2)C(=O)N([C@H]2CN4CCC2CC4)C3)c1 [Example 54, 2-(R)-1-Aza-bicyclo[2.2.2]oct-3-yl-6-(3,5-dimethoxy-phenyl)-2,3-dihydro-isoindol-1-one] | 669
NC(=O)c1cccc(-c2ccc3c(c2)C(=O)N([C@H]2CN4CCC2CC4)C3)c1 [Example 55, 3-((R)-2-1-Aza-bicyclo[2.2.2]oct-3-yl-3-oxo-2,3-dihydro-1H-isoindol-5-yl)-benzamide] | 17
O=C(NCc1ccccc1)c1ccc(-c2ccc3c(c2)C(=O)N([C@H]2CN4CCC2CC4)C3)cc1 [Example 56, 4-((R)-2-1-Aza-bicyclo[2.2.2]oct-3-yl-3-oxo-2,3-dihydro-1H-isoindol-5-yl)-N-benzyl-benzamide] | 100
Nc1cccc(-c2ccc3c(c2)C(=O)N([C@H]2CN4CCC2CC4)C3)c1 [Example 57, 6-(3-Amino-phenyl)-2-(R)-1-aza-bicyclo[2.2.2]oct-3-yl-2,3-dihydro-isoindol-1-one] | 6.4
CCC(=O)Nc1cccc(-c2ccc3c(c2)C(=O)N([C@H]2CN4CCC2CC4)C3)c1 [Example 58, N-[3-((R)-2-1-Aza-bicyclo[2.2.2]oct-3-yl-3-oxo-2,3-dihydro-1H-isoindol-5-yl)-phenyl]-propionamide] | 1.7
COc1cncc(-c2ccc3c(c2)C(=O)N([C@H]2CN4CCC2CC4)C3)c1 [Example 59, 2-(R)-1-Aza-bicyclo[2.2.2]oct-3-yl-6-(5-methoxy-pyridin-3-yl)-2,3-dihydro-isoindol-1-one] | 383
O=C1c2cc(-c3ccc4c(c3)OCCO4)ccc2CN1[C@H]1CN2CCC1CC2 [Example 60, 2-(R)-1-Aza-bicyclo[2.2.2]oct-3-yl-6-(2,3-dihydro-benzo[1,4]dioxin-6-yl)-2,3-dihydro-isoindol-1-one] | 28
CC(C)Oc1cccc(-c2ccc3c(c2)C(=O)N([C@H]2CN4CCC2CC4)C3)c1 [Example 61, 2-(R)-1-Aza-bicyclo[2.2.2]oct-3-yl-6-(3-isopropoxy-phenyl)-2,3-dihydro-isoindol-1-one] | 14
O=C1c2cc(-c3cccc(OC(F)(F)F)c3)ccc2CN1[C@H]1CN2CCC1CC2 [Example 62, 2-(R)-1-Aza-bicyclo[2.2.2]oct-3-yl-6-(3-trifluoromethoxy-phenyl)-2,3-dihydro-isoindol-1-one] | 48
O=C(Nc1cccc(-c2ccc3c(c2)C(=O)N([C@H]2CN4CCC2CC4)C3)c1)c1ccccc1 [Example 64, N-[3-((R)-2-1-Aza-bicyclo[2.2.2]oct-3-yl-3-oxo-2,3-dihydro-1H-isoindol-5-yl)-phenyl]-benzamide] | 3.9

Same assay, conditions: read-out: KD of radioligand (saturation curve, one site model)

Compound | Kd [nM]
125I-α-Bungarotoxin [[^125I]-α-BTX, reference compound] | 1.67
